From US9492460B2, “Carbazole compounds useful as bromodomain inhibitors” (Bristol-Myers Squibb Company, priority 2013, dated 2016)

biological target: T1, bromodomain BRD4 (44-168), BRD4 (333-460), and BRD4 (1-477 or 44-460) (Homo sapiens, UniProt O60885); test: Time Resolved Fluorescence Resonance Energy Transfer (TR-FRET) binding assay; conditions: one of the FRET assays described
T1 construct: BRD4(44-168), BRD4(333-460), BRD4(44-460), BRD4(1-477), O60885-1; fused on or other part: N-terminal BirA biotinylation motif, biotinylated; The TVMV-cleavable His6 tag is removed, except in some BRD4(44-460) runs detected with anti-His terbium cryptate

`Cc1noc(C)c1-c1cc(C(N)=O)c2c3cc(C(=O)N4CC(C)OC(C)C4)ccc3n(Cc3ccc(Cl)cc3)c2c1` (stereo not drawn) [Example 35] and `Cc1noc(C)c1-c1cc(C(N)=O)c2c3cc(C(=O)N4CCC(F)C4)ccc3n(Cc3ccc(Cl)cc3)c2c1` (stereo not drawn) [Example 80] cannot be ordered by IC50: < 50 nM for the first, < 50 nM for the second.

`CNC(=O)c1cc(-c2c(C)noc2C)cc2c1c1cc(C(=O)N3CC(F)C3)ccc1n2CC1CCC1` [Example 114] and `Cc1noc(C)c1-c1cc(C(N)=O)c2c3cc(C(=O)N4C[C@@H](C)O[C@@H](C)C4)ccc3n(CC3CCC3)c2c1` [Example 26, 9-(cyclobutylmethyl)-2-(3,5-dimethyl-4-isoxazolyl)-6-((cis-2,6-dimethyl-4-morpholinyl)carbonyl)-9H-carbazole-4-carboxamide] cannot be ordered by IC50: < 50 nM for the first, < 50 nM for the second.

`Cc1noc(C)c1-c1cc(C(N)=O)c2c3ccc(C(C)(C)O)c(F)c3n(C(c3ccccc3)C3CCC(F)(F)CC3)c2c1` (single isomer, unassigned) [Example 227, 9-[(4,4-difluorocyclohexyl)(phenyl)methyl]-2-(dimethyl-1,2-oxazol-4-yl)-8-fluoro-7-(2-hydroxypropan-2-yl)-9H-carbazole-4-carboxamide] and `Cc1noc(C)c1-c1cc(C(N)=O)c2c3ccc(C(C)(C)O)c(F)c3n(C(CCC(F)(F)F)c3ccccc3)c2c1` (single isomer, unassigned) [Example 230, 2-(dimethyl-1,2-oxazol-4-yl)-8-fluoro-7-(2-hydroxypropan-2-yl)-9-[4,4,4-trifluoro-1-phenylbutyl]-9H-carbazole-4-carboxamide] cannot be ordered by IC50: < 50 nM for the first, < 50 nM for the second.

`Cc1noc(C)c1-c1cc(C(N)=O)c2c3cc(C(=O)N4CCCC(C)(C)C4)ccc3n(Cc3ccccc3)c2c1` [Example 72] and `Cc1noc(C)c1-c1cc(C(N)=O)c2c3cc(C(=O)N4CCCOCC4)ccc3n(Cc3ccccc3)c2c1` [Example 56] cannot be ordered by IC50: < 50 nM for the first, < 50 nM for the second.

`Cc1noc(C)c1-c1cc(C(N)=O)c2c3cc(C(=O)N4CCC(F)C4)ccc3n(C(C)c3ccccc3)c2c1` (stereo not drawn) [Example 84] and `Cc1noc(C)c1-c1cc(C(N)=O)c2c3cc(C(=O)N4CC(F)(F)C4)ccc3n(C(C)c3ccccc3)c2c1` (single isomer, unassigned) [Example 98, 6-((3,3-difluoro-1-azetidinyl)carbonyl)-2-(3,5-dimethyl-4-isoxazolyl)-9-(1-phenylethyl)-9H-carbazole-4-carboxamide] cannot be ordered by IC50: < 50 nM for the first, < 50 nM for the second.

`Cc1noc(C)c1-c1cc(C(N)=O)c2c3cc(C(=O)N4CC[C@H](F)C4)ccc3n(Cc3c(F)cccc3F)c2c1` [Example 79, 9-(2,6-difluorobenzyl)-2-(3,5-dimethyl-4-isoxazolyl)-6-(((3S)-3-fluoro-1-pyrrolidinyl)carbonyl)-9H-carbazole-4-carboxamide] and `Cc1noc(C)c1-c1cc(C(N)=O)c2c3cc(C(=O)N4CC[C@@H](F)C4)ccc3n(Cc3ccccc3)c2c1` [Example 60] cannot be ordered by IC50: < 50 nM for the first, < 50 nM for the second.

`Cc1noc(C)c1-c1cc(C(N)=O)c2c3cc(N4CC(C)(C)COC4=O)ccc3n(Cc3ccc(F)cc3)c2c1` [Example 153, 2-(3,5-dimethyl-4-isoxazolyl)-6-(5,5-dimethyl-2-oxo-1,3-oxazinan-3-yl)-9-(4-fluorobenzyl)-9H-carbazole-4-carboxamide] and `Cc1noc(C)c1-c1cc(C(N)=O)c2c3cc(N4CCOC4=O)ccc3n(Cc3ccc(Cl)c(F)c3)c2c1` [Example 164, 9-(4-chloro-3-fluorobenzyl)-2-(3,5-dimethyl-4-isoxazolyl)-6-(2-oxo-1,3-oxazolidin-3-yl)-9H-carbazole-4-carboxamide] cannot be ordered by IC50: < 50 nM for the first, < 500 nM for the second.

`Cc1noc(C)c1-c1cc(C#N)c2c3ccc(C(=O)O)cc3n(Cc3ccccc3)c2c1` [Example 186, 9-Benzyl-5-cyano-7-(3,5-dimethyl-4-isoxazolyl)-9H-carbazole-2-carboxylic acid] and `Cc1noc(C)c1-c1cc(C#N)c2c3ccc(C(=O)O)cc3n(C(c3ccccc3)c3ccccc3)c2c1` [Example 193, 5-Cyano-7-(3,5-dimethyl-4-isoxazolyl)-9-(diphenylmethyl)-9H-carbazole-2-carboxylic acid] cannot be ordered by IC50: < 50 nM for the first, < 50 nM for the second.

`CCNC(=O)c1cc(-c2c(C)noc2C)cc2c1c1cc(C(=O)N3CC(F)C3)ccc1n2Cc1ccc(F)cc1` [Example 126, 2-(3,5-dimethyl-4-isoxazolyl)-N-ethyl-6-((3-fluoro-1-azetidinyl)carbonyl)-9-(4-fluorobenzyl)-9H-carbazole-4-carboxamide] and `Cc1noc(C)c1-c1cc(C(=O)N2CC(F)C2)c2c3cc(C(=O)N4CC(F)C4)ccc3n(Cc3ccc(F)cc3)c2c1` [Example 129, 2-(3,5-dimethyl-4-isoxazolyl)-4,6-bis((3-fluoro-1-azetidinyl)carbonyl)-9-(4-fluorobenzyl)-9H-carbazole] cannot be ordered by IC50: < 50 nM for the first, < 500 nM for the second.

`Cc1noc(C)c1-c1cc(C(N)=O)c2c(c1)[nH]c1ccc(C(=O)N3C[C@@H](C)O[C@@H](C)C3)cc12` [Example 25, 2-(3,5-dimethyl-4-isoxazolyl)-6-((cis-2,6-dimethyl-4-morpholinyl)carbonyl)-9H-carbazole-4-carboxamide] and `Cc1noc(C)c1-c1cc(C(N)=O)c2c3cc(C(=O)N4CC(C)OC(C)C4)ccc3n(Cc3ccncn3)c2c1` (stereo not drawn) [Example 38] cannot be ordered by IC50: < 500 nM for the first, < 500 nM for the second.

`CNC(=O)c1cc(-c2c(C)noc2C)cc2c1c1cc(C(=O)N3CC(F)C3)ccc1n2Cc1ccccn1` [Example 116, 2-(3,5-dimethylisoxazol-4-yl)-6-(3-fluoroazetidine-1-carbonyl)-N-methyl-9-(pyridin-2-ylmethyl)-9H-carbazole-4-carboxamide] and `CNC(=O)c1cc(-c2c(C)noc2C)cc2c1c1cc(C(=O)N3CC(F)C3)ccc1n2Cc1cccc(F)c1` [Example 104] cannot be ordered by IC50: < 50 nM for the first, < 50 nM for the second.

`COC(C)(C)c1ccc2c3c(C(N)=O)cc(-c4c(C)noc4C)cc3n([C@H](c3ccccc3)C3CCOCC3)c2c1` [Example 228, 2-(Dimethyl-1,2-oxazol-4-yl)-7-(2-methoxypropan-2-yl)-9-[(S)-oxan-4-yl(phenyl)methyl]-9H-carbazole-4-carboxamide] and `Cc1noc(C)c1-c1cc(C(N)=O)c2c3ccc(C(C)(C)O)cc3n(C(c3ccccc3)C3CCOCC3)c2c1` (single isomer, unassigned) [Example 198] cannot be ordered by IC50: < 50 nM for the first, < 50 nM for the second.

`COC(=O)c1ccc2c3c(C(N)=O)cc(-c4c(C)noc4C)cc3n(C(c3ccccc3)c3ccccc3)c2c1` [Example 192, Methyl 5-carbamoyl-7-(3,5-dimethyl-4-isoxazolyl)-9-(diphenylmethyl)-9H-carbazole-2-carboxylate] and `Cc1noc(C)c1-c1cc(C(N)=O)c2c3ccc(C(=O)N(C)C)cc3n(C(c3ccccc3)c3ccccc3)c2c1` [Example 195, 7-(3,5-Dimethyl-4-isoxazolyl)-9-(diphenylmethyl)-N˜2˜,N˜2˜-dimethyl-9H-carbazole-2,5-dicarboxamide] cannot be ordered by IC50: < 50 nM for the first, < 50 nM for the second.

`CNC(=O)c1cc(-c2c(C)noc2C)cc2[nH]c3ccc(C(=O)N4CC(F)(F)C4)cc3c12` [Example 99, 6-((3,3-difluoro-1-azetidinyl)carbonyl)-2-(3,5-dimethyl-4-isoxazolyl)-N-methyl-9H-carbazole-4-carboxamide] and `CNC(=O)c1cc(-c2c(C)noc2C)cc2c1c1cc(C(=O)N3CC(F)C3)ccc1n2C(C)c1ccccc1` (stereo not drawn) [Example 113] cannot be ordered by IC50: < 500 nM for the first, < 50 nM for the second.

`Cc1noc(C)c1-c1cc(C(N)=O)c2c3cc(C(=O)N4CCOC(C)C4)ccc3n(Cc3ccccc3)c2c1` (stereo not drawn) [Example 55] and `Cc1noc(C)c1-c1cc(C(N)=O)c2c3cc(C(=O)N4CCO[C@H](C)C4)ccc3n(Cc3ccccc3)c2c1` [Example 62] cannot be ordered by IC50: < 50 nM for the first, < 50 nM for the second.

`Cc1noc(C)c1-c1cc(C(N)=O)c2c(c1)[nH]c1ccc(N3CCCOC3=O)cc12` [Example 150, 2-(3,5-dimethyl-4-isoxazolyl)-6-(2-oxo-1,3-oxazinan-3-yl)-9H-carbazole-4-carboxamide] and `Cc1noc(C)c1-c1cc(C(N)=O)c2c3ccc(C(=O)N4CCOCC4)cc3n(Cc3ccccc3)c2c1` [Example 188, 9-Benzyl-2-(3,5-dimethyl-4-isoxazolyl)-7-(morpholine-4-carbonyl)-9H-carbazole-4-carboxamide] cannot be ordered by IC50: < 500 nM for the first, < 50 nM for the second.

`Cc1noc(C)c1-c1cc(C(N)=O)c2c3cc(NCC(F)F)ccc3n(Cc3ccccc3)c2c1` [Example 139, 9-benzyl-6-((2,2-difluoroethyl)amino)-2-(3,5-dimethyl-4-isoxazolyl)-9H-carbazole-4-carboxamide] and `CCC1CCN(C(=O)c2ccc3c(c2)c2c(C(N)=O)cc(-c4c(C)noc4C)cc2n3Cc2ccccc2)CC1` [Example 50] cannot be ordered by IC50: < 50 nM for the first, < 50 nM for the second.

`Cc1noc(C)c1-c1ccc2c3cc(C(=O)N4CC(C)OC(C)C4)ccc3n(Cc3ccccc3)c2c1` (stereo not drawn) [Example 9] and `Cc1ccc(Cn2c3ccc(C(=O)N4CC(C)OC(C)C4)cc3c3ccc(-c4c(C)noc4C)cc32)cc1` (stereo not drawn) [Example 21] cannot be ordered by IC50: < 50 nM for the first, < 500 nM for the second.

`Cc1noc(C)c1-c1cc(C(N)=O)c2c3ccc(C(C)(C)O)c(F)c3n(C(c3ccccc3)C3CCC(F)(F)CC3)c2c1` (single isomer, unassigned) [Example 226, 9-[(4,4-difluorocyclohexyl)(phenyl)methyl]-2-(dimethyl-1,2-oxazol-4-yl)-8-fluoro-7-(2-hydroxypropan-2-yl)-9H-carbazole-4-carboxamide] and `Cc1noc(C)c1-c1cc(C(N)=O)c2c3ccc(C(C)C)cc3n([C@H](c3ccccc3)C3CCOCC3)c2c1` [Example 229, 2-(Dimethyl-1,2-oxazol-4-yl)-9-[(S)-oxan-4-yl(phenyl)methyl]-7-(propan-2-yl)-9H-carbazole-4-carboxamide] cannot be ordered by IC50: < 50 nM for the first, < 50 nM for the second.

With `CNC(=O)c1cc(-c2c(C)noc2C)cc2c1c1cc(C(=O)N3C[C@@H](C)O[C@@H](C)C3)ccc1n2Cc1ccccc1` [Example 117, 9-benzyl-2-(3,5-dimethylisoxazol-4-yl)-6-(cis-2,6-dimethylmorpholine-4-carbonyl)-N-methyl-9H-carbazole-4-carboxamide] the IC50 was < 50 nM.
